Data: patent US20250000869A1, “TOPICAL COMPOSITIONS OF 2-PHENYL-3, 4-DIHYDROPYRROLO [2, L-F] [1, 2, 4] TRIAZINONE DERIVATIVES AND USES THEREOF” (TOPADUR PHARMA AG, priority 2021, published 2025)
Where two headings read alike, the source gives them in different places.

Experiments:
[1] = Solubility screening of Compound 1 in various solvents/solvent systems; type: physicochemical; conditions: read-out: Determined Solubility
Excerpt: A solubility screening of Compound 1 was effected. […] In general, three potential approaches where covered: i) polar organic co-solvents, ii) solubilization by surfactants and iii) oils which may, in particular, serve as a basis of an emulsion gel. A phosphate buffer of pH 6.5 with low molarity was used as this salt and pH is suitable for application on wounds. It is of note that the resulting pH of the screened systems is about 7.3.

uPAR−/− mice = assay: Healing of full thickness excisional cutaneous wounds after topical, on wound administration; type: in vivo
Excerpt: The urokinase-type plasminogen activator receptor deficient (uPAR−/−) mouse that reproduces cardinal features of SSc (dermal) vasculopathy and fibrosis is an animal model of systemic sclerosis that is considered as disease-relevant. The uPAR−/− mouse integrates apoptosis of dermal endothelial cells, a decreased density of dermal microvessels and endothelial to mesenchymal transition reflecting vasculopathy with dermal thickening, collagen accumulation, enhanced myofibroblast counts reflecting skin fibrosis. uPAR−/− induces and develops dermal and pulmonary fibrosis (Manetti M et al. Ann Rheum Dis. (2014) 73:1700-1709; Manetti M et al Ann Rheum Dis. (2017) 76:924-934; Schniering J et al., (2019) In Atlas of Ulcers in Systemic Sclerosis. Diagnosis and Management. Matucci-Cerinic M and Denton C P (eds). Springer, Chain, Switzerland, pp. 27-37).
uPAR−/− mice were bred from mating of heterozygotes (uPAR+/−; obtained from Institute for Translational Neurology and Neurology Clinics, University of Munster, Germany). Pups were genotyped and uPAR−/− mice obtained at Mendelian frequency. Two full thickness, excisional cutaneous wounds (6 mm diameter corresponding to an area of 28.3 mm^2) were generated, symmetrically to the dorsum midline. To this end, at the day before surgery, mice were anaesthetized with Isoflurane and their dorsum was shaved using Veet® depilatory cream and clippers. At the next following day, preoperative analgesia was administered at 30 min before surgery consisting of 0.1 mg/kg of Buprenorphine and 5 mg/kg of Ketoprofen. Animals were anesthetized with Isoflurane. Two full thickness wounds (including epidermis, dermis, hypodermis, panniculus carnosus; depth about 500 μm) of 6 mm diameter each were created using a biopsy punch and scissors each with identical, at least 10 mm distance left or right from the dorsum midline. To minimize wound contraction, wounds were splinted using a silicon splint (Grace Bio-Labs silicone wound splints, red with suture sites, outer diameter×inner diameter×thickness 14 mm×7 mm×0.5 mm). Splints were kept in place using six interrupted surgical sutures (6/0 polyamide-Ethylon) and Superglue (ethyl 2-cyanoacrylate glue) (Park S A et al. Wound Repair Regen. (2014) 22(3):368-380; Park S A et al. Wound Repair Regen. (2015) 23(2):251-261).
The cutaneous ulcers and the splint were protected using a plastic cover maintained using a non-woven adhesive dressing (Hypafix® (Smith & Nephew)) and a semiocclusive adhesive transparent dressing (Tegaderm™, (3M™)). Ketoprofen (5 mg/kg) and Buprenorphine (0.05 mg/kg) were administered for 3 days and then Buprenorphine (0.05 mg/kg) as needed. The estimated volume of a cutaneous ulcer was 28.3 mm^2 area×0.5 mm depth=14.15 mm^3 or 14.15 μl. […]

[2] = Plasma concentrations after topical, on wound administration (satellite study, LC-MS/MS); type: in vivo, C57BL/6J mice
Protocol: In order to address the systemic exposure following topical, on wound administration of Compound 1, in a satellite study, plasma concentrations of Compound 1 was measured. To this end, eight male C57BL/6J mice (12 weeks of age, body weight 26.8±0.4 g (Mean±SD)) underwent surgery for generation of one full thickness, excisional, cutaneous wounds, in an identical procedure as described above. The study was performed in C57BL/6J mice due to limited availability of uPAR−/− mice. As described before, Compound 1 (in form of Topical Composition A2) was added in a dose volume of 25 μl to the wounds as a single dose. The dose related to body weight was approximately 0.565 μg/kg (from a total of 25 μl of 1 μM Compound 1 per mouse). Peripheral venous blood was sampled from the tail tip (or by cardiac puncture for the final sampling) in four mice at time points (min) 1, 5, 15, 30, 60 post administration of Compound 1 and in another four mice at time points (h) 1, 2, 4, 6, 24 post administration of Compound 1. Plasma was generated and Compound 1 measured by LC-MS/MS. The LLOQ for Compound 1 was at 800 pg/ml corresponding to 1.32 nM. […] Considering the plasma protein binding of Compound 1 in mice with unbound fractions (fu) of 0.08% for Compound 1 the unbound plasma concentrations should have been <[…] for Compound 1, corresponding to <[…] for Compound 1 when extrapolated to administration to two wounds per mice as this was done in the main efficacy study, under the assumption of dose linearity.

rat aortic rings = assay: Relaxation of rat aortic rings; conditions: earlier effected measurements

solubility ([1]; 1% poloxamer 407 in phosphate buffer, pH 6.5, aqueous with cosolvent or surfactant or cyclodextrin, 1% poloxamer 407 in PB, PB = Phosphate buffer 10 mmol/L pH 6.5): 270 µg/mL
solubility ([1]; 1% polysorbate 80 in phosphate buffer, pH 6.5, aqueous with cosolvent or surfactant or cyclodextrin, 1% polysorbate 80 in PB, PB = Phosphate buffer 10 mmol/L pH 6.5): 77 µg/mL
solubility ([1]; 3% polysorbate 80 in phosphate buffer, pH 6.5, aqueous with cosolvent or surfactant or cyclodextrin, 3% polysorbate 80 in PB, PB = Phosphate buffer 10 mmol/L pH 6.5): 139 µg/mL
solubility ([1]; 8% polysorbate 80 in phosphate buffer + 3% benzyl alcohol, pH 6.5, aqueous with cosolvent or surfactant or cyclodextrin, 8% polysorbate 80 in PB + 3% benzyl alcohol, PB = Phosphate buffer 10 mmol/L pH 6.5): 56 µg/mL
solubility ([1]; 8% polysorbate 80 in phosphate buffer + 10% MCT, pH 6.5, aqueous with cosolvent or surfactant or cyclodextrin, 8% polysorbate 80 in PB + 10% MCT, PB = Phosphate buffer 10 mmol/L pH 6.5): 37 µg/mL
solubility ([1]; 8% polysorbate 80 in phosphate buffer + 10% ethanol, pH 6.5, aqueous with cosolvent or surfactant or cyclodextrin, 8% polysorbate 80 in PB + 10% ethanol, PB = Phosphate buffer 10 mmol/L pH 6.5): 43 µg/mL
solubility ([1]; 8% polysorbate 80 in phosphate buffer + 10% poloxamer 407, pH 6.5, aqueous with cosolvent or surfactant or cyclodextrin, 8% polysorbate 80 in PB + 10% poloxamer 407, PB = Phosphate buffer 10 mmol/L pH 6.5): 63 µg/mL
solubility ([1]; 8% polysorbate 80 in phosphate buffer, pH 6.5, aqueous with cosolvent or surfactant or cyclodextrin, 8% polysorbate 80 in PB, PB = Phosphate buffer 10 mmol/L pH 6.5): 67 µg/mL
solubility ([1]; 10% poloxamer 407 in phosphate buffer, pH 6.5, aqueous with cosolvent or surfactant or cyclodextrin, 10% poloxamer 407 in PB, PB = Phosphate buffer 10 mmol/L pH 6.5): 23.2 µg/mL
solubility ([1]; PEG 400/phosphate buffer (30:70, vol:vol), pH 6.5, aqueous with cosolvent or surfactant or cyclodextrin, PEG 400/PB (30:70, vol:vol), PB = Phosphate buffer 10 mmol/L pH 6.5): 1 µg/mL
solubility ([1]; PEG 400/phosphate buffer (70:30, vol:vol), pH 6.5, aqueous with cosolvent or surfactant or cyclodextrin, PEG 400/PB (70:30, vol:vol), PB = Phosphate buffer 10 mmol/L pH 6.5): 110 µg/mL
solubility ([1]; isopropyl myristate (IPM), oil or lipid, Isopropyl myristate (IPM)): 93 µg/mL
solubility ([1]; medium chain triglycerides (MCT), oil or lipid, Medium chain triglycerides (MCT)): 282 µg/mL
solubility ([1]; octyldodecanol (Kollicream OD), oil or lipid, Octyldodecanol (Kollicream OD)): 28 µg/mL
solubility ([1]; pH 6.5, aqueous with cosolvent or surfactant or cyclodextrin, PEG 400/PB (30:70, vol:vol) + 3% benzyl alcohol, PB = Phosphate buffer 10 mmol/L pH 6.5): 8 µg/mL
solubility ([1]; pH 6.5, aqueous with cosolvent or surfactant or cyclodextrin, PEG 400/PB (30:70, vol:vol) + 3% polysorbate 80, PB = Phosphate buffer 10 mmol/L pH 6.5): 20 µg/mL
solubility ([1]; pH 6.5, aqueous with cosolvent or surfactant or cyclodextrin, PEG 400/PB (30:70, vol:vol) + 10% poloxamer 407, PB = Phosphate buffer 10 mmol/L pH 6.5): 54 µg/mL
solubility ([1]; polyethylene glycol PEG 400, organic solvent or mixture, Polyethylene glycol PEG 400): 10500 µg/mL
unbound plasma concentration extrapolated to two wounds per mice ([2]; assumption of dose linearity): < 2120 nM
unbound plasma concentration ([2]; calculated from LLOQ and fu, one wound per mouse): < 1060 nM
plasma concentration of Compound 1 ([2]; single on wound dose 25 μl Topical Composition A2 (approx. 0.565 μg/kg), 1 min to 24 h, all time points and mice, LLOQ 800 pg/ml): < 1.32 nM
Compound: CCCOc1ccc(S(=O)(=O)N2CCC(CCO[N+](=O)[O-])CC2)cc1-c1nn2c(CCC)c(/C=N/O)c(C)c2c(=O)[nH]1 [Compound 1, 2-[1-(3-{6-[(1E)-(hydroxyimino)methyl]-5-methyl-4-oxo-7-propyl-3H,4H-pyrrolo[2,1-f][1,2,4]triazin-2-yl}-4-propoxybenzenesulfonyl)piperidin-4-yl]ethyl nitrate]
acceleration of wound closure versus Vehicle (uPAR−/− mice; uPAR−/− mice, based on means of % Wound Closure from day 5 to day 8): about 1 day
AUEC for % wound closure compared to vehicle (uPAR−/− mice; uPAR−/− mice, day 0-7): significant increase
healing of full thickness excisional cutaneous wounds (conclusion) (uPAR−/− mice; uPAR−/− mice, once daily topical, in form of Topical Composition A2): improved
part of wound closure delay associated with uPAR deficiency restored (uPAR−/− mice; uPAR−/− vs uPAR+/+ mice, from AUEC (Table 6)): about half
IC40 for relaxation of rat aortic rings (rat aortic rings): 8 µM
